Test results: patent US10828315B2 (Madrigal Pharmaceuticals, Inc., priority 2013, dated 2020)
Like-named read-outs stand apart in the source and are kept apart here.

What was measured:
HER2 [1] = test: HER2 degradation in BT-474 cells (Example 3, Methods 1 and 2); format: cell-based, human
Text: This example illustrates how a HER2 degradation assay may be used as a test to determine and select Hsp90-targeting moieties suitable for use in SDC-TRAPs of the invention, and further illustrates the ability of SDC-TRAPs to target cells preferentially expressing Hsp90. Such a test may further be used to determine the Hsp90 binding ability of SDC-TRAPs of the invention, as well as through competitive binding assays and cell-based Hsp90 client protein degradation assays known in the art.
After treatment, each cytoplasmic sample is prepared from 1×10^6 cells by incubation of cell lysis buffer (#9803, Cell Signaling Technology) on ice for 10 minutes. The resulting supernatant used as the cytosol fractions is dissolved with sample buffer for SDS-PAGE and run on a SDS-PAGE gel, blotted onto a nitrocellulose membrane by using semi-dry transfer. Non-specific binding to nitrocellulose is blocked with 5% skim milk in TBS with 0.5% Tween at room temperature for 1 hour, then probed with anti-HER2/ErB2 mAb (rabbit IgG, #2242, Cell Signaling) and anti-Tubulin (T9026, Sigma) as housekeeping control protein. HRP-conjugated goat anti-rabbit IgG (H+L) and HRP-conjugated horse anti-mouse IgG (H+L) are used as secondary Ab (#7074#7076, Cell Signaling) and LumiGLO reagent, 20× Peroxide (#7003, Cell Signaling) is used for visualization. The Hsp90 client protein HER2 is degraded when cells are treated with Hsp90-targeting moieties or SDC-TRAPs of the invention.
BT-474 cells are plated in the interior 60 wells of a 96 well black clear bottom plate (20,000 cells/well) in DMEM medium, with DMEM media in the surrounding 36 wells, and incubated at 37° C. with 5% CO2 overnight. On the second day, concentration response curve source plates are produced (10 point, 3-fold dilution of compounds in DMSO) followed by a 1:30 dilution in an intermediate dilution plate containing DMEM. Compound is transferred from the intermediate plate to the cell plate at a dilution of 1:10. The cells are then incubated at 37° C. with 5% CO2 for 24 hours.
Cells are then fixed in 4% phosphate-buffered paraformaldehyde for 30 minutes at room temperature and then permeabilized by washing five times with 0.1% Triton X-100 in PBS for 5 minutes at room temperature on a shaker. […] Cells are washed five times with 0.1% Tween-20 in PBS for 5 minutes at room temperature on a shaker and incubated with fluorescently-labeled secondary antibody (LI-COR, #926-32211) diluted 1:1000 in blocking buffer, and DRAQ5 nuclear stain (Biostatus Limited, # DRAQ5) diluted 1:10,000, at room temperature on a shaker for 1 hour. Cells are washed 5 times with 0.1% Tween-20 in PBS for 5 minutes at room temperature on a shaker and imaged on a LI-COR Odyssey imaging station. The raw data is normalized to DRAQ5 and the HER2 EC50 is calculated using XLfit™.

HER2 [2] = test: HER2 degradation assay with BT-474 cell line (Example 12, FACS); format: cell-based, human
[3] = Stability in cell culture media (Example 18); settings: for Media (5 μM) % Remaining 1 h (37° C.)*: sum of both peaks
Procedure: 98 μL of DMEM+10% FBS, +1% P/S, +1.5 g/L sodium bicarbonate cell culture media was mixed with 2 μL of DMSO and aliquotted into 96-well plates at 250 μL per 0, 1, 2, and 18 hour time point.
3×50 μL media samples in 96 were held in 96-well plates at −80° C. until the last time point was extracted. 200 μL of methanol containing IS was added and mixed by vortex at 1500 rpm for 1.5 minutes at room temperature. The samples were centrifuged at 4400 rpm for 10 minutes at 8° C.

[4] = Mouse plasma stability protocol, up to 1 h (Examples 16-18); settings: for % Remaining (1 h): % Remaining of parent after 1 h incubation in mouse plasma at 37° C. (10 μM); for Mouse (10 μM) % Remaining 1 h (37° C.)*: sum of both peaks; for Peak Area Ratio: SDC-TRAP-0063 incubated in mouse plasma
Human H3122 NSCLC cells = test: Cell viability assay (CellTiter-Glo) in H3122 cells (Example 4); format: cell-based; settings: NCI-H3122
Procedure: Human H3122 NSCLC cells were obtained and grown in RPMI in the presence of fetal bovine serum (10%), 2 mM L-glutamine and antibiotics (100 IU/ml penicillin and 100 μg/ml streptomycin, Sigma Aldrich.) Cells were maintained at 37° C., 5% CO2 atmosphere.
Cell viability was measured using the CellTiter-Glo® assay (Promega). In brief, cells were plated in 96-well plates in triplicate at optimal seeding density (determined empirically) and incubated at 37° C., 5% CO2 atmosphere for 24 hr prior to the addition of drug or vehicle (0.3% DMSO) to the culture medium. At the end of the assay, CellTiter-Glo was added to the wells per manufacturer's recommendation, shaken for two minutes and incubated for 10 minutes at room temperature. Luminescence (0.1 sec) was measured with a Victor II microplate reader (Perkin Elmer) and the resulting data were used to calculate cell viability, normalized to vehicle control.
Cells as described above were treated with exemplary SDC-TRAPs and their viability determined as above as well. The following table illustrates the results.

[5] = test system: human breast cancer cell line BT-474; test: Cytotoxicity assay (CellTiter-Glo, 72 h), BT-474; format: cell-based; settings: BT-474, 72 hours, read-out: Cytotoxicity (IC50, nM) BT-474
Procedure: (§1) Cytotoxicity of SDC-TRAP molecules was determined in three cancer cell lines. […] 80 μL of CellTiter-Glo was added to each well, followed by room temperature incubation in the dark for 15 minutes. Cell was determined by luminescence. IC50 was calculated using XLfit™ software.

[6] = test system: human urinary bladder cancer cell line RT-112; test: Cytotoxicity assay (CellTiter-Glo, 72 h), RT-112; format: cell-based; settings: RT-112, 72 hours, read-out: Cytotoxicity (IC50, nM) RT-112
Procedure: as §1

[7] = test system: human urinary bladder cancer cell line SW780; test: Cytotoxicity assay (CellTiter-Glo, 72 h), SW780; format: cell-based; settings: SW780, 72 hours, read-out: Cytotoxicity (IC50, nM) SW-780
Procedure: as §1

[8] = Metabolite profiling and identification; format: in vitro ADME; parameters: key: —: Not detected; settings: for Metabolite Glucuronidation: M+1 569.3; for Metabolite Hydroxylation + glucuronidatiom: M+1 585.3
Text: Metabolite Profiling and Identification: Metabolite profiling/identification for SDC-TRAP-0063 (M+1:880.3)

[9] = Artificial membrane permeability assay (PAMPA)
Procedure: Pre-coated PAMPA plates were warmed to room temperature for at least 30 minutes prior to adding assay components.
Stock solutions were prepared with the SDC-TRAP molecules to be tested. In order to make a working solution, either 50 μL of 100 μM Stock in DMSO+950 μL of PBS or 50 μL of 200 μM stock was added to 96 deep well plate, resulting in a 5 μM final concentration or a 10 μM final concentration, respectively. 3000 μL of the working solution containing each compound to be tested was added to the appropriate well of a donor PAMPA plate. 200 μL of PBS was added into the corresponding wells of an acceptor PAMPA plates.
The acceptor plate was lowered onto the donor plate and allowed to incubate for five hours. After five hours, a 50 μL aliquot was removed from each well of each plate and added into a new 96 deep-well plate.
100 μL of methanol containing an internal standard was added to each aliquot and analyzed by LC/MS.
In order to calculate the permeability for each SDC-TRAP molecule and the control molecules, the following formula was used:

[10] = Tissue Distribution Data for SDC-TRAP-0045, Time (h) 0.083
[11] = Tissue Distribution Data for SDC-TRAP-0045, Time (h) 6
[12] = Tissue Distribution Data for SDC-TRAP-0045, Time (h) 12
[13] = Tissue Distribution Data for SDC-TRAP-0045, Time (h) 24
[14] = Tissue Distribution Data for SDC-TRAP-0045, Time (h) 48

For CCc1c2c(nc3ccc(OC(=O)N4CCN(c5ccc(-n6c(O)nnc6-c6cc(C(C)C)c(O)cc6O)cc5)CC4)cc13)-c1cc3c(c(=O)n1C2)COC(=O)C3(O)CC (stereo not drawn) [SDC-TRAP-0045, 4,11-diethyl-4-hydroxy-3,14-dioxo-3,4,12,14-tetrahydro-1H-pyrano[3′,4′:6,7]indolizino[1,2-b]quinolin-9-yl 4-(4-(3-(2,4-dihydroxy-5-isopropylphenyl)-5-hydroxy-4H-1,2,4-triazol-4-yl)phenyl)piperazine-1-carboxylate], the IC50 (HER2 [1]) was 464 nM, the IC50 (HER2 [2]) was 464 nM and the “Plasma Conc.” value [10] was 689000 nM. For the same molecule, the “Tumor Conc.” value [10] was 4.30 nmol/g of tissue, the “Tumor/Plasma Ratio” value [10] was 0.00624 and the “Plasma Conc.” value [11] was 1880 nM. For the same molecule, the “Tumor Conc.” value [11] was 2.55 nmol/g of tissue, the “Tumor/Plasma Ratio” value [11] was 1.35 and the “Plasma Conc.” value [12] was 141 nM. For the same molecule, the “Tumor Conc.” value [12] was 1.13 nmol/g of tissue, the “Tumor/Plasma Ratio” value [12] was 8.02 and the “Plasma Conc.” value [13] was 11.3 nM. The “Tumor Conc.” value [13] was “BQL”, the “Plasma Conc.” value [14] was “BQL” and the “Tumor Conc.” value [14] was “BQL”. The “Media (5 μM) % Remaining 19 h (37° C.)” value [3] was 50%, the “Media (5 μM) % Remaining 1 h (37° C.)§” value ([3]; data from single parent peak) was 72% and the “Media (5 μM) % Remaining 1 h (37° C.)*” value [3] was 77%. The “% Remaining (1 h)” value [4] was 45.0%, the “% Remaining (1 h, 37° C.)” value ([4]; mouse plasma, 1 h) was 45% and the “Mouse (10 μM) % Remaining 1 h (37° C.)§” value ([4]; mouse plasma, data from single parent peak) was 34%. The “Mouse (10 μM) % Remaining 1 h (37° C.)*” value ([4]; mouse plasma) was 45%.
For CC(C)c1cc(-c2nnc(O)n2-c2ccc3c(ccn3CCC(=O)Nc3cccc4c3CN(C3CCC(=O)NC3=O)C4=O)c2)c(O)cc1O (stereo not drawn) [SDC-TRAP-0017, 3-(5-(3-(2,4-dihydroxy-5-isopropylphenyl)-5-hydroxy-4H-1,2,4-triazol-4-yl)-1H-indol-1-yl)-N-(2-(2,6-dioxopiperidin-3-yl)-1-oxoisoindolin-4-yl)propanamide], the IC50 (Human H3122 NSCLC cells) was > 3000 nM.
With CCc1c2c(nc3ccc(O)cc13)-c1cc3c(c(=O)n1C2)COC(=O)[C@]3(O)CC [SN-38, reference compound] the IC50 [5] was > 10000 nM, the IC50 [6] was < 10 nM and the IC50 [7] was 38 nM. For the same molecule, the “Metabolite Glucuronidation” value ([8]; Hepatocytes Dog) was “√”, the “Metabolite Hydroxylation + glucuronidatiom” value ([8]; Hepatocytes Dog) was “—” and the “Metabolite Glucuronidation” value ([8]; Hepatocytes Human) was “√”. The “Metabolite Hydroxylation + glucuronidatiom” value ([8]; Hepatocytes Human) was “√”, the “Metabolite Glucuronidation” value ([8]; Hepatocytes Monkey) was “√” and the “Metabolite Hydroxylation + glucuronidatiom” value ([8]; Hepatocytes Monkey) was “√”. For the same molecule, the “Metabolite Glucuronidation” value ([8]; Hepatocytes Mouse) was “√”, the “Metabolite Hydroxylation + glucuronidatiom” value ([8]; Hepatocytes Mouse) was “—” and the “Metabolite Glucuronidation” value ([8]; Hepatocytes Rat) was “√”. The “Metabolite Hydroxylation + glucuronidatiom” value ([8]; Hepatocytes Rat) was “—”, the “Plasma Conc.” value (mouse, in vivo) was “BQL” and the “Tumor Conc.” value (mouse, in vivo) was “BQL”. The “Media (5 μM) % Remaining 19 h (37° C.)” value [3] was 52%, the “Media (5 μM) % Remaining 1 h (37° C.)*” value [3] was 82% and the “Mass Retention” value ([9]; incubation 5 h, first table) was 38.2%. For the same molecule, the “Mass Retention” value ([9]; same protocol, second table) was 46.6%, the “% Remaining (1 h)” value [4] was 63.5% and the “Peak Area Ratio” value ([4]; 0 h) was 0.0616. For the same molecule, the “Peak Area Ratio” value ([4]; 0.5 h) was 4.13, the “Peak Area Ratio” value ([4]; 1 h) was 4.46 and the “Peak Area Ratio” value ([4]; […]) was 1.37. For the same molecule, the “Mouse (10 μM) % Remaining 1 h (37° C.)*” value ([4]; mouse plasma) was 64%.
For CCc1c2c(nc3ccc(OC(=O)N(C)CCCCN4CCN(Cc5ccc(-n6c(O)nnc6-c6cc(C(C)C)c(O)cc6O)cc5)CC4)cc13)-c1cc3c(c(=O)n1C2)COC(=O)C3(O)CC (stereo not drawn) [SDC-TRAP-0044, 4,11-diethyl-4-hydroxy-3,14-dioxo-3,4,12,14-tetrahydro-1H-pyrano[3′,4′:6,7]indolizino[1,2-b]quinolin-9-yl (4-(4-(4-(3-(2,4-dihydroxy-5-isopropylphenyl)-5-hydroxy-4H-1,2,4-triazol-4-yl)benzyl)piperazin-1-yl)butyl)(methyl)carbamate], the IC50 (HER2 [1]) was 602 nM, the IC50 (HER2 [2]) was 602 nM and the “Media (5 μM) % Remaining 19 h (37° C.)” value [3] was 41%. For the same molecule, the “Media (5 μM) % Remaining 1 h (37° C.)*” value [3] was 50%, the “% Remaining (1 h)” value [4] was 60.6% and the “% Remaining (1 h, 37° C.)” value ([4]; mouse plasma, 1 h) was 61%. The “Mouse (10 μM) % Remaining 1 h (37° C.)*” value ([4]; mouse plasma) was 61%.
In the case of CCc1c2c(nc3ccc(O)cc13)-c1cc3c(c(=O)n1C2)COC(=O)C3(CC)OC(=O)N(C)CCOCCn1ccc2cc(-n3c(O)nnc3-c3cc(C(C)C)c(O)cc3O)ccc21 (stereo not drawn) [SDC-TRAP-0037, 4,11-diethyl-9-hydroxy-3,14-dioxo-3,4,12,14-tetrahydro-1H-pyrano[3′,4′:6,7]indolizino[1,2-b]quinolin-4-yl (2-(2-(5-(3-(2,4-dihydroxy-5-isopropylphenyl)-5-hydroxy-4H-1,2,4-triazol-4-yl)-1H-indol-1-yl)ethoxy)ethyl)(methyl)carbamate], the IC50 (HER2 [1]) is reported as 2110 nM, the IC50 (HER2 [2]) is reported as 2110 nM and the “Media (5 μM) % Remaining 19 h (37° C.)” value [3] is reported as 6%. For the same molecule, the “Media (5 μM) % Remaining 1 h (37° C.)*” value [3] was 67%, the “% Remaining (1 h)” value [4] was 95.3% and the “% Remaining (1 h, 37° C.)” value ([4]; mouse plasma, 1 h) was 95%. The “Mouse (10 μM) % Remaining 1 h (37° C.)*” value ([4]; mouse plasma) was 95%.
Work on CC(C)c1cc(-c2nnc(O)n2-c2ccc3c(ccn3CCOCCNC(=O)c3ccc(CCc4c[nH]c5nc(N)[nH]c(=O)c45)cc3)c2)c(O)cc1O [SDC-TRAP-0020, 4-(2-(2-amino-4-oxo-4,7-dihydro-3H-pyrrolo[2,3-d]pyrimidin-5-yl)ethyl)-N-(2-(2-(5-(3-(2,4-dihydroxy-5-isopropylphenyl)-5-hydroxy-4H-1,2,4-triazol-4-yl)-1H-indol-1-yl)ethoxy)ethyl)benzamide] yielded an IC50 (Human H3122 NSCLC cells) of 1740 nM.
